Test results from patent US20260048047A1, “SMALL-MOLECULE ACTIVATORS OF MYCOBACTERIUM TUBERCULOSIS ADENYLYL CYCLASE” (priority 2022, published 2026).
Where two headings read alike, the source gives them in different places.

Test system: M. tuberculosis
Assay: Extracellular activity against M. tuberculosis in cholesterol media (Alamar Blue reduction assay)
Format: cell-based, Mycobacterium tuberculosis
Settings: 7H12-Cholesterol media, 10 days, read-out: Cholesterol broth: alamar blue--EC50
[1] = Mycobacterium tuberculosis, 240 h

Row | SMILES | EC50 [1] [nM] | EC50 [nM]
1 | O=C(Cc1cc(=O)[nH]c(=O)[nH]1)N1CCC(c2nc(-c3ccc(F)cc3)no2)CC1 [Compound 1, 6-(2-(4-(3-(4-fluorophenyl)-1,2,4-oxadiazol-5-yl)piperidin-1-yl)-2-oxoethyl)pyrimidine-2,4(1H,3H)-dione] | 784 | 
2 | O=C(Cc1cnccn1)N1CCC(n2nnc(-c3ccc(F)cc3)n2)CC1 [Compound 2, 1-(4-(5-(4-fluorophenyl)-2H-tetrazol-2-yl)piperidin-1-yl)-2-(pyrazin-2-yl)ethan-1-one] |  | > 10000
3 | O=c1cc(CN2CCC(c3nc(-c4ccc(Cl)c(Cl)c4)no3)CC2)[nH]c(=O)[nH]1 [Compound 3, 6-((4-(3-(3,4-dichlorophenyl)-1,2,4-oxadiazol-5-yl)piperidin-1-yl)methyl)pyrimidine-2,4(1H,3H)-dione] | 179 | 
4 | O=C(Cc1cnccn1)N1CCC(n2nnc(-c3ccc(F)cc3)n2)CC1 [Compound 4, 1-(4-(5-(4-fluorophenyl)-2H-tetrazol-2-yl)piperidin-1-yl)-2-(pyrazin-2-yl)ethan-1-one] |  | 122
5 | CC(C)c1noc(CC(=O)N2CCC(c3nc(-c4ccc(Cl)c(Cl)c4)no3)CC2)n1 [Compound 5, 1-(4-(3-(3,4-dichlorophenyl)-1,2,4-oxadiazol-5-yl)piperidin-1-yl)-2-(3-isopropyl-1,2,4-oxadiazol-5-yl)ethan-1-one] | 1430 | 
6 | CC(C)c1noc(CC(=O)N2CCC(c3nc(-c4ccc(F)cc4)no3)CC2)n1 [Compound 6, 1-(4-(3-(4-fluorophenyl)-1,2,4-oxadiazol-5-yl)piperidin-1-yl)-2-(3-isopropyl-1,2,4-oxadiazol-5-yl)ethan-1-one] | 2980 | 
7 | Cc1cncnc1CC(=O)N1CCC(c2nc(C3CCCCC3)no2)CC1 [Compound 7, 1-(4-(3-cyclohexyl-1,2,4-oxadiazol-5-yl)piperidin-1-yl)-2-(5-methylpyrimidin-4-yl)ethan-1-one] | > 25000 | 
8 | Cc1cncnc1CC(=O)N1CCC(c2nc(-c3ccc(Cl)c(Cl)c3)no2)CC1 [Compound 8, 1-(4-(3-(3,4-dichlorophenyl)-1,2,4-oxadiazol-5-yl)piperidin-1-yl)-2-(5-methylpyrimidin-4-yl)ethan-1-one] | 479 | 
9 | Cc1cncnc1CC(=O)N1CCC(c2nc(-c3ccc(F)cc3)no2)CC1 [Compound 9, 1-(4-(3-(4-fluorophenyl)-1,2,4-oxadiazol-5-yl)piperidin-1-yl)-2-(5-methylpyrimidin-4-yl)ethan-1-one] | 3680 | 
10 | Cc1conc1CC(=O)N1CCC(c2nc(-c3ccc(Cl)c(Cl)c3)no2)CC1 [Compound 10, 1-(4-(3-(3,4-dichlorophenyl)-1,2,4-oxadiazol-5-yl)piperidin-1-yl)-2-(4-methylisoxazol-3-yl)ethan-1-one] | 284 | 
11 | Cc1conc1CC(=O)N1CCC(c2nc(-c3ccc(F)cc3)no2)CC1 [Compound 11, 1-(4-(3-(4-fluorophenyl)-1,2,4-oxadiazol-5-yl)piperidin-1-yl)-2-(4-methylisoxazol-3-yl)ethan-1-one] | 1430 | 
12 | Cc1nc(CC(=O)N2CCC(c3nc(-c4ccc(F)cc4)no3)CC2)no1 [Compound 12, 1-(4-(3-(4-fluorophenyl)-1,2,4-oxadiazol-5-yl)piperidin-1-yl)-2-(5-methyl-1,2,4-oxadiazol-3-yl)ethan-1-one] | > 10000 | 
13 | Cc1nccnc1CC(=O)N1CCC(c2nc(C3CCCCC3)no2)CC1 [Compound 13, 1-(4-(3-cyclohexyl-1,2,4-oxadiazol-5-yl)piperidin-1-yl)-2-(3-methylpyrazin-2-yl)ethan-1-one] | > 25000 | 
14 | Cc1nccnc1CC(=O)N1CCC(c2nc(-c3ccc(Cl)c(Cl)c3)no2)CC1 [Compound 14, 1-(4-(3-(3,4-dichlorophenyl)-1,2,4-oxadiazol-5-yl)piperidin-1-yl)-2-(3-methylpyrazin-2-yl)ethan-1-one] | 8320 | 
15 | Cc1nccnc1CC(=O)N1CCC(c2nc(-c3ccc(F)cc3)no2)CC1 [Compound 15, 1-(4-(3-(4-fluorophenyl)-1,2,4-oxadiazol-5-yl)piperidin-1-yl)-2-(3-methylpyrazin-2-yl)ethan-1-one] | 1220 | 
16 | Cc1nnn(CC(=O)N2CCC(c3nc(-c4ccc(Cl)c(F)c4)no3)CC2)n1 [Compound 16, 1-(4-(3-(4-chloro-3-fluorophenyl)-1,2,4-oxadiazol-5-yl)piperidin-1-yl)-2-(5-methyl-2H-tetrazol-2-yl)ethan-1-one] | 790 | 
17 | Cc1nnnn1CC(=O)N1CCC(c2nc(-c3ccc(Cl)c(F)c3)no2)CC1 [Compound 17, 1-(4-(3-(4-chloro-3-fluorophenyl)-1,2,4-oxadiazol-5-yl)piperidin-1-yl)-2-(5-methyl-1H-tetrazol-1-yl)ethan-1-one] | 160 | 
18 | Cc1noc(CC(=O)N2CCC(c3nc(C4CC5CCC4C5)no3)CC2)n1 (stereo not drawn) [Compound 18, 1-(4-(3-(bicyclo[2.2.1]heptan-2-yl)-1,2,4-oxadiazol-5-yl)piperidin-1-yl)-2-(3-methyl-1,2,4-oxadiazol-5-yl)ethan-1-one] | > 10000 | 

Row | SMILES | EC50 [1] [nM] | EC50 [nM]
19 | Cc1noc(CC(=O)N2CCC(c3nc(C4CCC5(CC4)OCCO5)no3)CC2)n1 [Compound 19, 1-(4-(3-(1,4-dioxaspiro[4.5]decan-8-yl)-1,2,4-oxadiazol-5-yl)piperidin-1-yl)-2-(3-methyl-1,2,4-oxadiazol-5-yl)ethan-1-one] | > 10000 | 
20 | Cc1noc(CC(=O)N2CCC(c3nc(C4CCCC4)no3)CC2)n1 [Compound 20, 1-(4-(3-cyclopentyl-1,2,4-oxadiazol-5-yl)piperidin-1-yl)-2-(3-methyl-1,2,4-oxadiazol-5-yl)ethan-1-one] | > 25000 | 
21 | Cc1noc(CC(=O)N2CCC(n3nnc(C4CCCC4)n3)CC2)n1 [Compound 21, 1-(4-(5-cyclopentyl-2H-tetrazol-2-yl)piperidin-1-yl)-2-(3-methyl-1,2,4-oxadiazol-5-yl)ethan-1-one] | 7350 | 
22 | Cc1noc(CC(=O)N2CCC(c3nc(C4CCCC5CC54)no3)CC2)n1 (stereo not drawn) [Compound 22, 1-(4-(3-(bicyclo[4.1.0]heptan-2-yl)-1,2,4-oxadiazol-5-yl)piperidin-1-yl)-2-(3-methyl-1,2,4-oxadiazol-5-yl)ethan-1-one] | 890 | 
23 | Cc1noc(CC(=O)N2CCC(c3nc(C4CCCCC4)no3)CC2)n1 [Compound 23, 1-(4-(3-cyclohexyl-1,2,4-oxadiazol-5-yl)piperidin-1-yl)-2-(3-methyl-1,2,4-oxadiazol-5-yl)ethan-1-one] | > 10000 | 
24 | Cc1noc(CC(=O)N2CCC(n3nnc(C4CCCCC4)n3)CC2)n1 [Compound 24, 1-(4-(5-cyclohexyl-2H-tetrazol-2-yl)piperidin-1-yl)-2-(3-methyl-1,2,4-oxadiazol-5-yl)ethan-1-one] | > 25000 | 
25 | Cc1noc(CC(=O)N2CCC(O)(c3nc(C4CCCCC4)no3)CC2)n1 [Compound 25, 1-(4-(3-cyclohexyl-1,2,4-oxadiazol-5-yl)-4-hydroxypiperidin-1-yl)-2-(3-methyl-1,2,4-oxadiazol-5-yl)ethan-1-one] | > 10000 | 
26 | Cc1noc(CC(=O)N2CCC(c3nc(C45CCC(CC4)C5)no3)CC2)n1 [Compound 26, 1-(4-(3-(bicyclo[2.2.1]heptan-1-yl)-1,2,4-oxadiazol-5-yl)piperidin-1-yl)-2-(3-methyl-1,2,4-oxadiazol-5-yl)ethan-1-one] | > 25000 | 
27 | Cc1noc(CC(=O)N2CCC(c3nc(C4(C)CCCCC4)no3)CC2)n1 [Compound 27, 2-(3-methyl-1,2,4-oxadiazol-5-yl)-1-(4-(3-(1-methylcyclohexyl)-1,2,4-oxadiazol-5-yl)piperidin-1-yl)ethan-1-one] | > 25000 | 
28 | Cc1noc(CC(=O)N2CCC(c3nc(C4CC4(C)C)no3)CC2)n1 (stereo not drawn) [Compound 28, 1-(4-(3-(2,2-dimethylcyclopropyl)-1,2,4-oxadiazol-5-yl)piperidin-1-yl)-2-(3-methyl-1,2,4-oxadiazol-5-yl)ethan-1-one] | > 25000 | 
29 | Cc1noc(CC(=O)N2CCC(c3nc(C4CCC(C)(C)C4)no3)CC2)n1 (stereo not drawn) [Compound 29, 1-(4-(3-(3,3-dimethylcyclopentyl)-1,2,4-oxadiazol-5-yl)piperidin-1-yl)-2-(3-methyl-1,2,4-oxadiazol-5-yl)ethan-1-one] | 3730 | 
30 | Cc1noc(CC(=O)N2CCC(c3nc(C4CCC(C)(C)CC4)no3)CC2)n1 [Compound 30, 1-(4-(3-(4,4-dimethylcyclohexyl)-1,2,4-oxadiazol-5-yl)piperidin-1-yl)-2-(3-methyl-1,2,4-oxadiazol-5-yl)ethan-1-one] | 1140 | 
31 | Cc1noc(CC(=O)N2CCC(c3nc(C4C[C@@H](C)C[C@@H](C)C4)no3)CC2)n1 (stereo partly drawn) [Compound 31, 1-(4-(3-((3R,5S)-3,5-dimethylcyclohexyl)-1,2,4-oxadiazol-5-yl)piperidin-1-yl)-2-(3-methyl-1,2,4-oxadiazol-5-yl)ethan-1-one] | > 25000 | 
32 | Cc1noc(CC(=O)N2CCC(c3nc(-c4ccc(Cl)cc4Cl)no3)CC2)n1 [Compound 32, 1-(4-(3-(2,4-dichlorophenyl)-1,2,4-oxadiazol-5-yl)piperidin-1-yl)-2-(3-methyl-1,2,4-oxadiazol-5-yl)ethan-1-one] | 718 | 
33 | Cc1noc(CC(=O)N2CCC(c3nc(-c4ccc(Cl)c(Cl)c4)no3)CC2)n1 [Compound 33, 1-(4-(3-(3,4-dichlorophenyl)-1,2,4-oxadiazol-5-yl)piperidin-1-yl)-2-(3-methyl-1,2,4-oxadiazol-5-yl)ethan-1-one] | 140 | 
34 | Cc1noc(CC(=O)N2CCC(c3nc(-c4ccc(Cl)cc4)no3)CC2)n1 [Compound 34, 1-(4-(3-(4-chlorophenyl)-1,2,4-oxadiazol-5-yl)piperidin-1-yl)-2-(3-methyl-1,2,4-oxadiazol-5-yl)ethan-1-one] | 399 | 
35 | Cc1noc(CC(=O)N2CCC(n3nnc(-c4ccc(Cl)cc4)n3)CC2)n1 [Compound 35, 1-(4-(5-(4-chlorophenyl)-2H-tetrazol-2-yl)piperidin-1-yl)-2-(3-methyl-1,2,4-oxadiazol-5-yl)ethan-1-one] | 1080 | 
36 | Cc1noc(CC(=O)N2CCC(c3nc(-c4cccc(Cl)c4)no3)CC2)n1 [Compound 36, 1-(4-(3-(3-chlorophenyl)-1,2,4-oxadiazol-5-yl)piperidin-1-yl)-2-(3-methyl-1,2,4-oxadiazol-5-yl)ethan-1-one] | 1630 | 
